The record followed here is patent US9873680B2 (Gilead Sciences, Inc., priority 2014, dated 2018).

Structures are written as SMILES. Like-named read-outs stand apart in the source and are kept apart here.

The nature of data set [1]: Test B: Cytotoxicity Assay. The note with it: human, uninfected MT-4 cells, CellTiter-Glo. The class given is cell-based. The method, then:
Test B: Cytotoxicity Assay Compound cytotoxicity and the corresponding CC50 values was determined using the same protocol as described in the antiviral assay (Test A) except that uninfected cells were used.
A general note: Cellular ATP, detected with luciferase, serves as a proxy for viable cell number.

The subject of data set [2] is HIV-IIIb. Put plainly: Test A: Antiviral Assay in MT4 Cells. It counts as cell-based, HIV-1. The note with it: for inhibition at 0.2 µM: 0.2 μM drug concentration. The method in brief: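 MT-4 cells were preinfected with HIV-IIIb […]. Cell viability, as protection from viral cytopathic effect, was read by CellTiter-Glo chemiluminescence.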
Setting [3] is: Human immunodeficiency virus 1, MT4, 120 h, MT-4 cells infected with HIV-IIIb, 5 days, values normalized to 100%, average over time, read-out: % inhibition at 0.2 μM (percent inhibition of virus-induced cell killing).

Consider `CN(C)c1ccc(C#Cc2ccc(-c3ccc4c(c3)C(=O)NC4)c([C@H](Cc3cc(F)cc(F)c3)NC(=O)Cn3nc(C(F)(F)F)c4c3C(F)(F)[C@@H]3C[C@H]43)n2)cc1` [Compound 14, 2-((3bS,4aR)-5,5-difluoro-3-(trifluoromethyl)-3b,4,4a,5-tetrahydro-1H-cyclopropa[3,4]cyclopenta[1,2-c]pyrazol-1-yl)-N—((S)-2-(3,5-difluorophenyl)-1-(6-((4-(dimethylamino)phenyl)ethynyl)-3-(3-oxoisoindolin-5-yl)pyridin-2-yl)ethyl)acetamide], for which the 50% cytotoxic concentration (CC50) (commonly the concentration at which the toxic effect on the cells reaches its halfway point) at 5 days in data set [1] was more than 53.2 µM. Moreover, the inhibition (as a rule, the relative decrease from the control value, in per cent) at 0.2 µM in data set [2] (setting [3]) came to 1%.
As for `Cn1nc(NS(C)(=O)=O)c2c(Cl)ccc(-c3ccc(C#CC4(O)CC(F)(F)C4)nc3[C@H](Cc3cc(F)cc(F)c3)NC(=O)Cn3nc(C(F)(F)F)c4c3C(F)(F)[C@@H]3C[C@H]43)c21` [Compound 103, N—((S)-1-(3-(4-chloro-1-methyl-3-(methylsulfonamido)-1H-indazol-7-yl)-6-((3,3-difluoro-1-hydroxycyclobutyl)ethynyl)pyridin-2-yl)-2-(3,5-difluorophenyl)ethyl)-2-((3bS,4aR)-5,5-difluoro-3-(trifluoromethyl)-3b,4,4a,5-tetrahydro-1H-cyclopropa[3,4]cyclopenta[1,2-c]pyrazol-1-yl)acetamide], in data set [1], half-maximal cytotoxicity (CC50 at 5 days) was put at 9.21 µM. The inhibition at 0.2 µM in data set [2] (setting [3]) was found to be 100%.
Regarding `Cn1nc(NS(C)(=O)=O)c2cccc(-c3ccc(C#CC4CCOCC4)nc3[C@H](Cc3cc(F)cc(F)c3)NC(=O)Cn3nc(C(F)(F)F)c4c3C(F)(F)[C@@H]3C[C@H]43)c21` [Compound 28B, 2-((3bS,4aR)-5,5-difluoro-3-(trifluoromethyl)-3b,4,4a,5-tetrahydro-1H-cyclopropa[3,4]cyclopenta[1,2-c]pyrazol-1-yl)-N—((S)-2-(3,5-difluorophenyl)-1-(3-(1-methyl-3-(methylsulfonamido)-1H-indazol-7-yl)-6-((tetrahydro-2H-pyran-4-yl)ethynyl)pyridin-2-yl)ethyl)acetamide], the 50% cytotoxic concentration (CC50) at 5 days in data set [1] was found to be 6.07 µM. For the same compound, the inhibition at 0.2 µM in data set [2] (setting [3]) was 92%.
Compound `Cn1nc(NS(C)(=O)=O)c2c(Cl)ccc(-c3ccc(C#CC4CCNC4)nc3[C@H](Cc3cc(F)cc(F)c3)NC(=O)Cn3nc(C(F)(F)F)c4c3C(F)(F)[C@@H]3C[C@H]43)c21` (stereo partly drawn) [Compound 44, N-((1S)-1-(3-(4-chloro-1-methyl-3-(methylsulfonamido)-1H-indazol-7-yl)-6-(pyrrolidin-3-ylethynyl)pyridin-2-yl)-2-(3,5-difluorophenyl)ethyl)-2-((3bS,4aR)-5,5-difluoro-3-(trifluoromethyl)-3b,4,4a,5-tetrahydro-1H-cyclopropa[3,4]cyclopenta[1,2-c]pyrazol-1-yl)acetamide] registered a CC50 at 5 days in data set [1] of 5.64 µM. In addition, the inhibition at 0.2 µM in data set [2] (setting [3]) came to 100%.
The compound `Cn1nc(NS(C)(=O)=O)c2c(Cl)ccc(-c3ccc(-c4cnn(C5COC5)c4)nc3[C@H](Cc3cc(F)cc(F)c3)NC(=O)Cn3nc(C(F)(F)F)c4c3C(F)(F)[C@@H]3C[C@H]43)c21` [Compound 72, N—((S)-1-(3-(4-chloro-1-methyl-3-(methylsulfonamido)-1H-indazol-7-yl)-6-(1-(oxetan-3-yl)-1H-pyrazol-4-yl)pyridin-2-yl)-2-(3,5-difluorophenyl)ethyl)-2-((3bS,4aR)-5,5-difluoro-3-(trifluoromethyl)-3b,4,4a,5-tetrahydro-1H-cyclopropa[3,4]cyclopenta[1,2-c]pyrazol-1-yl)acetamide] gave a CC50 at 5 days in data set [1] of 50.3 µM. Also, the inhibition at 0.2 µM in data set [2] (setting [3]) stood at 93%.
Consider `Cn1nc(NS(C)(=O)=O)c2c(Cl)ccc(-c3ccc(C#CC4(C)CNCCO4)nc3[C@H](Cc3cc(F)cc(F)c3)NC(=O)Cn3nc(C(F)(F)F)c4c3C(F)(F)[C@@H]3C[C@H]43)c21` (stereo partly drawn) [Compound 76, N-((1S)-1-(3-(4-chloro-1-methyl-3-(methylsulfonamido)-1H-indazol-7-yl)-6-((2-methylmorpholin-2-yl)ethynyl)pyridin-2-yl)-2-(3,5-difluorophenyl)ethyl)-2-((3bS,4aR)-5,5-difluoro-3-(trifluoromethyl)-3b,4,4a,5-tetrahydro-1H-cyclopropa[3,4]cyclopenta[1,2-c]pyrazol-1-yl)acetamide], for which, in data set [1], the CC50 at 5 days came to 6.67 µM. Besides, the inhibition at 0.2 µM in data set [2] (setting [3]) was found to be 93%.
Take `O=C(Cn1nc(C(F)F)c2c1C(F)(F)CCC2(F)F)N[C@@H](Cc1cc(F)cc(F)c1)c1nc(C#Cc2cnc3[nH]ccc3c2)ccc1-c1cnc2[nH]ccc2c1` [Compound 4C, (S)—N-(1-(6-((1H-pyrrolo[2,3-b]pyridin-5-yl)ethynyl)-3-(1H-pyrrolo[2,3-b]pyridin-5-yl)pyridin-2-yl)-2-(3,5-difluorophenyl)ethyl)-2-(3-(difluoromethyl)-4,4,7,7-tetrafluoro-4,5,6,7-tetrahydro-1H-indazol-1-yl)acetamide]: the CC50 at 5 days in data set [1] is 1.27 µM. Besides, the inhibition at 0.2 µM in data set [2] (setting [3]) stood at 0%.
Taken in the same sequence, the figures for `Cn1nc(NS(C)(=O)=O)c2c(Cl)ccc(-c3ccc(C#CC4(O)CCCNC4)nc3[C@H](Cc3cc(F)cc(F)c3)NC(=O)Cn3nc(C(F)(F)F)c4c3C(F)(F)[C@@H]3C[C@H]43)c21` (stereo partly drawn) [Compound 75, N-((1S)-1-(3-(4-chloro-1-methyl-3-(methylsulfonamido)-1H-indazol-7-yl)-6-((3-hydroxypiperidin-3-yl)ethynyl)pyridin-2-yl)-2-(3,5-difluorophenyl)ethyl)-2-((3bS,4aR)-5,5-difluoro-3-(trifluoromethyl)-3b,4,4a,5-tetrahydro-1H-cyclopropa[3,4]cyclopenta[1,2-c]pyrazol-1-yl)acetamide] were 5.59 µM and 81%.
Turning to `Cn1nc(NS(C)(=O)=O)c2cccc(-c3ccc(C#CC4(O)CNC4)nc3[C@H](Cc3cc(F)cc(F)c3)NC(=O)Cn3nc(C(F)(F)F)c4c3C(F)(F)[C@@H]3C[C@H]43)c21` [Compound 22C, 2-((3bS,4aR)-5,5-difluoro-3-(trifluoromethyl)-3b,4,4a,5-tetrahydro-1H-cyclopropa[3,4]cyclopenta[1,2-c]pyrazol-1-yl)-N—((S)-2-(3,5-difluorophenyl)-1-(6-((3-hydroxyazetidin-3-yl)ethynyl)-3-(1-methyl-3-(methylsulfonamido)-1H-indazol-7-yl)pyridin-2-yl)ethyl)acetamide], in data set [1], it took 17.7 µM to reach half-maximal cytotoxicity (CC50 at 5 days). The inhibition at 0.2 µM in data set [2] (setting [3]) amounted to 93%.
For the compound `O=C(Cn1nc(C(F)F)c2c1C(F)(F)CCC2(F)F)N[C@@H](Cc1cc(F)cc(F)c1)c1nc(C#Cc2ccc3[nH]c(=O)ccc3c2)ccc1-c1cnc2[nH]ccc2c1` [Compound 5, (S)-2-(3-(difluoromethyl)-4,4,7,7-tetrafluoro-4,5,6,7-tetrahydro-1H-indazol-1-yl)-N-(2-(3,5-difluorophenyl)-1-(6-((2-oxo-1,2-dihydroquinolin-6-yl)ethynyl)-3-(1H-pyrrolo[2,3-b]pyridin-5-yl)pyridin-2-yl)ethyl)acetamide], the CC50 at 5 days in data set [1] was more than 53.2 µM. Further, the inhibition at 0.2 µM in data set [2] (setting [3]) is 5%.
In data set [1], `Cn1nc(NS(C)(=O)=O)c2cccc(-c3ccc(C#CC4(O)CCOCC4)nc3[C@H](Cc3cc(F)cc(F)c3)NC(=O)Cn3nc(C(F)(F)F)c4c3C(F)(F)[C@@H]3C[C@H]43)c21` [Compound 26, 2-((3bS,4aR)-5,5-difluoro-3-(trifluoromethyl)-3b,4,4a,5-tetrahydro-1H-cyclopropa[3,4]cyclopenta[1,2-c]pyrazol-1-yl)-N—((S)-2-(3,5-difluorophenyl)-1-(6-((4-hydroxytetrahydro-2H-pyran-4-yl)ethynyl)-3-(1-methyl-3-(methylsulfonamido)-1H-indazol-7-yl)pyridin-2-yl)ethyl)acetamide] gave a CC50 at 5 days of 15.9 µM. Also, the inhibition at 0.2 µM in data set [2] (setting [3]) is 94%.
Consider `NC(=O)c1cc(-c2ccc(C#CC3(O)CCCCC3)nc2[C@H](Cc2cc(F)cc(F)c2)NC(=O)Cn2nc(C(F)(F)F)c3c2C(F)(F)[C@@H]2C[C@H]32)ccc1F` [Compound 16, 5-(2-((S)-1-(2-((3bS,4aR)-5,5-difluoro-3-(trifluoromethyl)-3b,4,4a,5-tetrahydro-1H-cyclopropa[3,4]cyclopenta[1,2-c]pyrazol-1-yl)acetamido)-2-(3,5-difluorophenyl)ethyl)-6-((1-hydroxycyclohexyl)ethynyl)pyridin-3-yl)-2-fluorobenzamide], for which half-maximal cytotoxicity in data set [1] (CC50 at 5 days) was put at 3 µM. The inhibition at 0.2 µM in data set [2] (Human immunodeficiency virus 1, IIIB, MT4, comparison with previously published compounds, read-out: Response at 0.2 μM (percent inhibition of virus-induced cell killing)) was 76%; in data set [2] (setting [3]), 76%. Moreover, the inhibition at 2 µM in data set [2] (Human immunodeficiency virus 1, IIIB, MT4, 2 μM drug concentration, comparison with previously published compounds, read-out: Response at 2 μM (percent inhibition of virus-induced cell killing)) stood at 77%.
With `Cn1nc(NS(C)(=O)=O)c2c(Cl)ccc(-c3ccc(C#CC4CNCCO4)nc3[C@H](Cc3cc(F)cc(F)c3)NC(=O)Cn3nc(C(F)(F)F)c4c3C(F)(F)[C@@H]3C[C@H]43)c21` (stereo partly drawn) [Compound 53B, N-((1S)-1-(3-(4-chloro-1-methyl-3-(methylsulfonamido)-1H-indazol-7-yl)-6-(morpholin-2-ylethynyl)pyridin-2-yl)-2-(3,5-difluorophenyl)ethyl)-2-((3bS,4aR)-5,5-difluoro-3-(trifluoromethyl)-3b,4,4a,5-tetrahydro-1H-cyclopropa[3,4]cyclopenta[1,2-c]pyrazol-1-yl)acetamide], in data set [1], the midpoint of cytotoxicity, the CC50 at 5 days, lay at 6.81 µM. In data set [2] (setting [3]), the inhibition at 0.2 µM was found to be 100%.
Regarding `N#Cc1ccc(C#Cc2ccc(-c3ccc4c(c3)C(=O)NC4)c([C@H](Cc3cc(F)cc(F)c3)NC(=O)Cn3nc(C(F)(F)F)c4c3C(F)(F)[C@@H]3C[C@H]43)n2)cc1` [Compound 9, N—((S)-1-(6-((4-cyanophenyl)ethynyl)-3-(3-oxoisoindolin-5-yl)pyridin-2-yl)-2-(3,5-difluorophenyl)ethyl)-2-((3bS,4aR)-5,5-difluoro-3-(trifluromethyl)-3b,4,4a,5-tetrahydro-1H-cyclopropa[3,4]cyclopenta[1,2-c]pyrazol-1-yl)acetamide], the 50% cytotoxic concentration (CC50) at 5 days in data set [1] was more than 53.2 µM. Besides, the inhibition at 0.2 µM in data set [2] (setting [3]) turned out to be 25%.
